According to patent US20230063538A1, “LARGE SCALE PROCESS” (GALECTO BIOTECH AB, priority 2019, published 2023):

Test: Solid-state characterisation of polymorphic Form 1 (hygroscopicity)
Assay type: physicochemical
Details: crystalline polymorphic Form 1 of the compound of formula (I)

hygroscopicity: not hygroscopic
SMILES: OC[C@H]1O[C@H](Sc2cncc(Br)c2)[C@H](O)[C@@H](n2cc(-c3cc(F)c(F)c(F)c3)nn2)[C@H]1O [Form 1, 5-Bromopyridin-3-yl 3-deoxy-3-[4-(3,4,5-trifluorophenyl)-1H-1,2,3-triazol-1-yl]-1-thio-α-D-galactopyranoside]
